Experimental findings from patent US9637451B2, “Indole compound” (ASTELLAS PHARMA INC., priority 2014, dated 2017) are described below.

For assay [1], the target named is T1, human MT1 receptor (Homo sapiens, UniProt P48039).
T1 construct: expressed in transfected cells
In words: Activation of human MT1 receptor in receptor-expressing cells, intracellular Ca2+ by FLIPR. The format is cell-based. The conditions noted are these: for EC50: HEK293EBNA1 cells stably expressing human MT1 and Gq/i chimeric G protein, Ca2+ FLIPR; for Emax: maximum reaction by ramelteon taken as 100%.

Assay [2] concerns the target T2, human MT2 receptor (Homo sapiens, UniProt P49286).
T2 construct: expressed in transfected cells
T2 sequence (P49286 1-362): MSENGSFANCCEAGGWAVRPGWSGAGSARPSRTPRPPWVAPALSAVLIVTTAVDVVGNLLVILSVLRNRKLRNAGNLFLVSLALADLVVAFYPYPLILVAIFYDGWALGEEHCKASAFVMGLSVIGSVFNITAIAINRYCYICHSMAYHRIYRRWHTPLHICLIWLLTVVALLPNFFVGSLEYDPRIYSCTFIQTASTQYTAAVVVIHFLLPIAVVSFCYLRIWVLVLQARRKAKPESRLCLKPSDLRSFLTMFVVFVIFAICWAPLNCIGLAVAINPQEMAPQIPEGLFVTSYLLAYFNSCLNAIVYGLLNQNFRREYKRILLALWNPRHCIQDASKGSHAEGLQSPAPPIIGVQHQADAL
In words: Activation of human MT2 receptor in receptor-expressing cells, intracellular Ca2+ by FLIPR. The format is cell-based. The note with it: for EC50: HEK293 cells stably expressing human MT2 and Gq/i chimeric G protein, Ca2+ FLIPR; for Emax: maximum reaction by ramelteon taken as 100%.

The structures appear in SMILES notation.

T1 sequence (P48039 whole entry): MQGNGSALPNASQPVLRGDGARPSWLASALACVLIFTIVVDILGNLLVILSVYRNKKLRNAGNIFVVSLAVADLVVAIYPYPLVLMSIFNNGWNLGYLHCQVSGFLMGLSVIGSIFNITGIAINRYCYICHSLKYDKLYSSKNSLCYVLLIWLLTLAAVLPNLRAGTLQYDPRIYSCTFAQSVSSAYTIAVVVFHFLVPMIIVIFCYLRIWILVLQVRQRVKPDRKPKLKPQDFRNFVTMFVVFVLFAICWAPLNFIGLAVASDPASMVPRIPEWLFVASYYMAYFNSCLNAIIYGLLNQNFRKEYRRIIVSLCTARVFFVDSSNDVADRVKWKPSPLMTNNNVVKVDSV

`CC(=O)NCCc1c[nH]c2ccc(OCCOc3ccn(C)n3)cc12` [Example 2, N-[2-(5-{2-[(1-methyl-1H-pyrazol-3-yl)oxy]ethoxy}-1H-indol-3-yl)ethyl]acetamide]: the EC50 in assay [1] came out at 7 nM; in assay [2] it was 17 nM. Moreover, the Emax in assay [1] and in assay [2] was 125% throughout.

In assay [1], `CC(=O)NCCc1c[nH]c2ccc(OCCOc3cnccn3)cc12` [Example 3, N-(2-{5-[2-(pyrazin-2-yloxy)ethoxy]-1H-indol-3-yl}ethyl)acetamide] showed a half-maximal effective concentration (EC50) of 9.9 nM and an Emax of 94%. In addition, in assay [2], the EC50 stood at 51 nM and the Emax worked out at 127%.

As for `CCOC(=O)NCCOc1ccc2[nH]c(C)c(CCNC(C)=O)c2c1` [Example 12], the EC50 stood at 7.7 nM in assay [1] and 18 nM in assay [2]. Besides, the values for the Emax in assay [1] and in assay [2] were 96% and 93%, respectively.

In assay [1], `COc1ccc(OCCOc2cc3c(CCNC(C)=O)c(C)[nH]c3cc2F)cn1` [Example 16] registered an EC50 of 10 nM and an Emax of 100%. Further, in assay [2], the EC50 came to 100 nM and the Emax was 82%.

Turning to `COC(=O)NCCOc1ccc2[nH]c(C)c(CCNC(C)=O)c2c1` [Example 17], the EC50 came to 5.9 nM in assay [1] and 33 nM in assay [2]. For the same compound, the Emax in assay [1] was 84%; in assay [2] it was 91%.

With `COC(=O)NCCOc1cc2c(CCNC(C)=O)c(C)[nH]c2cc1F` [Example 19], the values for the EC50 in assay [1] and in assay [2] were 5.7 nM and 17 nM, respectively. For the same compound, the Emax came out at 94% in assay [1] and 91% in assay [2].

For the compound `CC(=O)NCCc1c[nH]c2ccc(OCCc3csc(C)n3)cc12` [Example 20], the EC50 was determined as 4.1 nM in assay [1] and 7.7 nM in assay [2]. Also, the Emax is 115% in assay [1] and 119% in assay [2].

Turning to `CNC(=O)NCCc1c[nH]c2ccc(OCCc3nc(C)sc3C)cc12` [Example 21], the half-maximal effective concentration (EC50) was found to be 7 nM in assay [1] and 44 nM in assay [2]. The values for the Emax in assay [1] and in assay [2] were 103% and 59%, respectively.

`CC(=O)NCCc1c(C)[nH]c2cc(F)c(OCCn3ccc(C)n3)cc12` [Example 22]: in assay [1], the midpoint of the response, the EC50, lay at 7.3 nM and the Emax came to 105%. In assay [2], this compound showed an EC50 of 8.7 nM and an Emax of 95%.

In assay [1], `CC(=O)NCCc1c[nH]c2cc(F)c(OCCn3cc(Cl)cn3)cc12` [Example 24] registered an EC50 of 13 nM and an Emax of 99%. In assay [2], the EC50 stood at 18 nM and the Emax is 71%.

In assay [1], `CC(=O)NCCc1c[nH]c2cc(F)c(OCCc3csc(C)n3)cc12` [Example 25] yielded a concentration for a half-maximal effect (EC50) of 1.5 nM and an Emax of 105%. In assay [2], this compound registered an EC50 of 2.9 nM and an Emax of 96%.

As for `CNC(=O)NCCc1c[nH]c2cc(F)c(OCCc3csc(C)n3)cc12` [Example 26], in assay [1], the concentration giving a half-maximal response (EC50) stood at 8.8 nM and the Emax worked out at 97%. Also, in assay [2], the EC50 is 9.8 nM and the Emax came to 106%.

In assay [1], `CCc1ccn(CCOc2cc3c(CCNC(C)=O)c[nH]c3cc2F)n1` [Example 27] showed an EC50 of 8.7 nM and an Emax of 83%. In addition, in assay [2], the EC50 turned out to be 10 nM and the Emax turned out to be 82%.

For `COc1ccc(OCCOc2cc3c(CCNC(C)=O)c[nH]c3cc2F)cn1` [Example 28], in assay [1], the EC50 amounted to 6.8 nM and the maximal effect (Emax) came to 119%. In assay [2], this compound registered an EC50 of 35 nM and an Emax of 62%.

In assay [1], `CC(=O)NCCc1c(C)[nH]c2ccc(OCCn3ccc(C)n3)cc12` [Example 29] gave an EC50 of 10 nM and an Emax of 100%. In assay [2], this compound displayed an EC50 of 24 nM and an Emax of 112%.

For the compound `CNC(=O)NCCc1c(C)[nH]c2ccc(OCCn3ccc(C)n3)cc12` [Example 30], the EC50 in assay [1] stood at 4.8 nM; in assay [2], 15 nM. Besides, the Emax came out at 106% in assay [1] and 110% in assay [2].

Regarding `COc1ncc(OCCOc2ccc3[nH]cc(CCNC(C)=O)c3c2)cc1F` [Example 32], in assay [1], the EC50 came out at 3.4 nM and the Emax came out at 96%. Also, in assay [2], the EC50 was 50 nM and the Emax turned out to be 66%.

Consider `COc1ncc(OCCOc2cc3c(CCNC(C)=O)c[nH]c3cc2F)cc1F` [Example 33], for which the EC50 in assay [1] turned out to be 4.3 nM; in assay [2] it was 60 nM. Also, the figures for the Emax in assay [1] and in assay [2] were 103% and 53%, respectively.

Take `CC(=O)NCC(C)c1c[nH]c2ccc(OCCOc3ccn(C)n3)cc12` (centres unmarked) [Example 34]: the EC50 was 4.3 nM in assay [1] and 10 nM in assay [2]. Besides, the Emax is 93% in assay [1] and 125% in assay [2].

In assay [1], `CC(=O)NCC(C)(C)c1c[nH]c2cc(F)c(OCCOc3ccn(C)n3)cc12` [Example 35] gave an EC50 of 3.7 nM and a maximum response (Emax) of 94%. In assay [2], this compound registered an EC50 of 8.3 nM and an Emax of 114%.

For `CC(=O)NCC(C)(C)c1c[nH]c2cc(F)c(OCCn3ccc(C)n3)cc12` [Example 36], the EC50 in assay [1] turned out to be 6 nM; in assay [2] it was 15 nM. For the same compound, the results for the Emax in assay [1] and in assay [2] were 101% and 96%, respectively.

On to `CC(=O)NC[C@H](C)c1c[nH]c2cc(F)c(OCCn3ccc(C)n3)cc12` [Example 39], for which the EC50 was found to be 7.2 nM in assay [1] and 51 nM in assay [2]. The Emax in assay [1] was 104%; in assay [2], 49%.

For `COc1ccc(OCCOc2cc3c([C@@H](C)CNC(C)=O)c[nH]c3cc2F)cn1` [Example 40], the figures for the EC50 in assay [1] and in assay [2] were 6.3 nM and 160 nM, respectively. Besides, the Emax was found to be 81% in assay [1] and 42% in assay [2].

In assay [1], `CCCC(=O)NCCc1c[nH]c2ccc(OCCOc3ccn(C)n3)cc12` [Example 41] had a half-maximal effective concentration (EC50) of 11 nM and an Emax of 75%. In addition, in assay [2], the EC50 came out at 26 nM and the Emax is 93%.

Take `Cn1ccc(OCCOc2ccc3[nH]cc(CCNC(=O)C(F)F)c3c2)n1` [Example 42]: in assay [1], a half-maximal effect (EC50) was put at 7.9 nM and the Emax was found to be 97%. In assay [2], this compound had an EC50 of 12 nM and an Emax of 103%.

For the compound `CCC(=O)NCCc1c[nH]c2cc(F)c(OCCOc3ccn(C)n3)cc12` [Example 43], the results for the EC50 in assay [1] and in assay [2] were 5.3 nM and 7.1 nM, respectively. Besides, the Emax in assay [1] came to 110%; in assay [2], 104%.

In the case of `Cn1ccc(OCCOc2cc3c(CCNC(=O)C(F)F)c[nH]c3cc2F)n1` [Example 44], the values for the EC50 in assay [1] and in assay [2] were 3.3 nM and 4.5 nM, respectively. The Emax in assay [1] is 103%; in assay [2], 102%.

Turning to `CCC(=O)NCCc1c(C)[nH]c2cc(F)c(OCCOc3ccn(C)n3)cc12` [Example 45], in assay [1], the midpoint of the response, the EC50, lay at 2.3 nM and the maximal response (Emax) amounted to 99%. In assay [2], the EC50 turned out to be 14 nM and the Emax came to 127%.

`CCC(=O)NCCc1c[nH]c2cc(F)c(OCCOc3ccc(OC)nc3)cc12` [Example 46]: the EC50 is 3.4 nM in assay [1] and 6.3 nM in assay [2]. The Emax in assay [1] was determined as 78%; in assay [2], 76%.

In assay [1], `CNC(=O)NCCc1c(C)[nH]c2cc(F)c(OCCOc3ccn(C)n3)cc12` [Example 47] displayed an EC50 of 9.8 nM and an Emax of 124%. In assay [2], this compound gave an EC50 of 41 nM and a maximal effect (Emax) of 145%.

For `CNC(=O)NCCc1c(C)[nH]c2ccc(OCCOc3cnc(OC)c(F)c3)cc12` [Example 48], in assay [1], a half-maximal effect (EC50) was put at 8.4 nM and the Emax was 92%. In assay [2], this compound came in with an EC50 of 56 nM and an Emax of 106%.

In assay [1], `CC(=O)NCCc1c[nH]c2ccc(OCCOc3cncc(Br)c3)cc12` [Example 49] displayed an EC50 of 5.6 nM and an Emax of 102%. In assay [2], this compound yielded an EC50 of 11 nM and a maximal effect (Emax) of 119%.

In assay [1], `CNC(=O)NCCc1c[nH]c2ccc(OCCOc3cncc(Br)c3)cc12` [Example 50] had an EC50 of 8.5 nM and an Emax of 89%. In assay [2], this compound returned an EC50 of 6.4 nM and an Emax of 111%.

In assay [1], `CC(=O)NCCc1c[nH]c2ccc(OCCOc3ccnc(Cl)c3)cc12` [Example 51] returned an EC50 of 5.3 nM and an Emax of 95%. Also, in assay [2], a half-maximal effect (EC50) was put at 4.7 nM and the Emax is 108%.

In assay [1], `CNC(=O)NCCc1c[nH]c2ccc(OCCOc3ccnc(Cl)c3)cc12` [Example 52] came in with a 50% effective concentration (EC50) of 10 nM and a maximum response (Emax) of 92%. Besides, in assay [2], the EC50 was 5.6 nM and the Emax was determined as 117%.

In assay [1], `CNC(=O)NCCc1c[nH]c2ccc(OCCOc3cccc(OC)n3)cc12` [Example 53] displayed a concentration giving a half-maximal response (EC50) of 1 nM and an Emax of 112%. In assay [2], this compound returned an EC50 of 4.8 nM and an Emax of 99%.

In the case of `COc1cccc(OCCOc2ccc3[nH]cc(CCNC(C)=O)c3c2)n1` [Example 54], the values for the half-maximal effective concentration (EC50) in assay [1] and in assay [2] were 0.77 nM and 2.6 nM, respectively. The results for the Emax in assay [1] and in assay [2] were 111% and 109%, respectively.

`CC(=O)NCCc1c[nH]c2ccc(OCCOc3cncc(Cl)c3)cc12` [Example 55]: in assay [1], the EC50 turned out to be 8 nM and the Emax came out at 109%. In assay [2], this compound yielded an EC50 of 9.1 nM and a maximum response (Emax) of 133%.

One may read the EC50 as the concentration that produces a half-maximal response. Low readings indicate greater potency, high ones weaker potency. In general, Emax refers to the greatest response seen or fitted, relative to the assay's reference.
